Measured values published in PMC4161152 (Journal of Medicinal Chemistry, 2014).
pEC50: −log10 of the molar value.

Legend:
Format in all cases: cell-based
[1] = system: human Raji lymphoma cells; test: Raji lymphoma cell MTT assay
human MCT4 = biological target: T1, human MCT4 (Homo sapiens, UniProt O15427); test: 14C lactate uptake in MCF7_MCT4 cells; conditions: increased uptake versus parental MCF7 cells
T1 sequence (O15427 1-465): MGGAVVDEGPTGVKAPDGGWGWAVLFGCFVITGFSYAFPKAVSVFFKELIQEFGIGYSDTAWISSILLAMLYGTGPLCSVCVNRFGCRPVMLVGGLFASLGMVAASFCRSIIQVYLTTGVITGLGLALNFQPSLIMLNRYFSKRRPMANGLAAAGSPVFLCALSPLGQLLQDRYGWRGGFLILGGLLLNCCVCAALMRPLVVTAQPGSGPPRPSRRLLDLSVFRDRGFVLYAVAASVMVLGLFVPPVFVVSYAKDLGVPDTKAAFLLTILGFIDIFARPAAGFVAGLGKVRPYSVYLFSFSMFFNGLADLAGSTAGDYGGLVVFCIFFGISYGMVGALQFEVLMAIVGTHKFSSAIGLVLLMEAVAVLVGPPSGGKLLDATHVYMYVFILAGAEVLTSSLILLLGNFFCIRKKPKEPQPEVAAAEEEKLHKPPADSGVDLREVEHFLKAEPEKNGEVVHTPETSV

MCF7_MCT4 cells = test: MCF7_MCT4 MTT assay; conditions: Homo sapiens, 96 h, read-out: growth inhibition EC50, MCF7_MCT4 cells
MCT1 = biological target: T2, MCT1 (Mus musculus, UniProt P53986); test: MCF7_MCT1 14C-lactate transport assay; conditions: IC50 (nM) lactate transport, labeled (14C) lactate transport, MCF7 breast cancer cells engineered to overexpress MCT1, 10 min on ice
T2 sequence (P53986 1-493): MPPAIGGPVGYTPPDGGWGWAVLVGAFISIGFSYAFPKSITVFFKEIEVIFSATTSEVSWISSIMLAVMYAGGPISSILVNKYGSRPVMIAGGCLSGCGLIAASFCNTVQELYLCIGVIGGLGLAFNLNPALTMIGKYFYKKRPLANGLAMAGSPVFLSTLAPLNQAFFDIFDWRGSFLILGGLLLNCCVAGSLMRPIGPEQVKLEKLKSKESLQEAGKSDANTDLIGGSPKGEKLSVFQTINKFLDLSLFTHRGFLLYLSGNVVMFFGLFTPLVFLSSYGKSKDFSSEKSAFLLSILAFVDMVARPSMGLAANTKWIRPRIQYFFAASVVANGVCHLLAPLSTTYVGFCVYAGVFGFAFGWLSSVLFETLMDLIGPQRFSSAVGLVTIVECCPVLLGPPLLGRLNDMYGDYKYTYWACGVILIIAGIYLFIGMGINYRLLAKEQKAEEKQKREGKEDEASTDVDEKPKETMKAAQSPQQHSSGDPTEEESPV

Cc1n[nH]c(C)c1Cc1nc2c(nc1CCCCCO)c(=O)n(C)c(=O)n2CC(C)C [Compound 31]
activity in Raji lymphoma cell proliferation assay (in words) [1]: inactive

CC(C)Cn1c(=O)n(C)c(=O)c2[nH]c(=O)c(Cc3cccc4ccccc34)nc21 [Compound 12]
activity in Raji lymphoma cell proliferation assay (in words) [1]: inactive

CC(C)Cc1nn(C)c(=O)c2c(SCCCO)n(Cc3cccc4ccccc34)cc12 [Compound 1, reference compound]
effect on 14C lactate uptake in MCF7_MCT4 cells (in words) (human MCT4): not inhibited | pEC50 (MCF7_MCT4 cells): < 5.00

CC(C)Cn1c(=O)n(C)c(=O)c2c1nc(Cc1cccc3ccccc13)c(=O)n2CCCCCCO [Compound 14d]
activity in Raji lymphoma cell proliferation assay (in words) [1]: inactive

CC(C)Cn1c(=O)n(C)c(=O)c2c1nc(Cc1cccc3ccccc13)c(=O)n2CCCCO [Compound 14b]
IC50 (MCT1): 548 nM

COCCCCCc1nc2c(=O)n(C)c(=O)n(CC(C)C)c2nc1Cc1cccc2ccccc12 [Compound 28]
activity in Raji lymphoma cell proliferation assay (in words) [1]: largely inactive

CC(C)Cn1c(=O)n(C)c(=O)c2nc(/C=C\CCCO)c(Cc3cccc4ccccc34)nc21 [Compound 27]
IC50 (MCT1): 116 nM | fold higher EC50 than clinical compound 2 [1]: 2–4 fold

CC(C)Cn1c(=O)n(C)c(=O)c2nc(CCCCCO)c(Cc3cccc4ccccc34)nc21 [Compound 23b]
IC50 (MCT1): 192 nM | fold higher EC50 than clinical compound 2 [1]: 2–4 fold

CC(C)Cn1c(=O)n(C)c(=O)c2nc(SCCCCO)c(Cc3cccc4ccccc34)nc21 [Compound 15c]
fold higher EC50 than clinical compound 2 [1]: 2–4 fold

CC(C)Cn1c(=O)n(C)c(=O)c2nc(SCCCO)c(Cc3cccc4ccccc34)nc21 [Compound 15b]
IC50 (MCT1): 858 nM

CC(C)Cn1c(=O)n(C)c(=O)c2nc(CCCCO)c(Cc3cccc4ccccc34)nc21 [Compound 23a]
IC50 (MCT1): > 2000 nM
